In assay [1] the test system is Mycobacterium bovis BCG containing pMV361-lux (BCG:361-lux). Briefly: microbe, parasite or virus in culture. Type of assay: cell-based. The note with it: for MIC: Mycobacterium tuberculosis variant bovis BCG, BCG.
The test system is the same in assay [2]. Description: microbe, parasite or virus in culture. Type of assay: cell-based. The note with it: Mycobacterium tuberculosis variant bovis BCG, 120 h, read-out: MIC BACTEC.
Assay [3] shares this test system. Description: microbe, parasite or virus in culture. It is filed as cell-based. Particulars: for MBC: Mycobacterium tuberculosis variant bovis BCG, BCG.
For assay [4], the system named is rBCG:pMH30-lux. The arrangement: species or system BCG; BALB/C mice. The note with it: mouse, in vivo.
Assay [5] concerns rBCG:pMH30-lux. The arrangement: species or system BCG; BALB/C mice. Particulars: mouse, in vivo. This is another data set of the same source.

SMILES strings stand for the structures. ≈ marks a conversion by molar mass, not a printed value. Like-named read-outs stand apart in the source and are kept apart here.

Consider `NCC[C@H](O)C(=O)N[C@@H]1C[C@H](N)[C@@H](O[C@H]2O[C@H](CN)[C@@H](O)[C@H](O)[C@H]2O)[C@H](O)[C@H]1O[C@H]1O[C@H](CO)[C@@H](O)[C@H](N)[C@H]1O` [Amikacin, amikacin], for which the “similarity in BACTEC and BCG:pMV361-lux assays (susceptibility)” value (from here on “similarity”) in assay [1] is reported as “comparable”. Besides, the MIC in assay [1] (24 h) was above 2 µg/mL; in assay [1] (48 h) it was above 2 µg/mL; in assay [1] (72 h), 0.5 µg/mL (≈ 0.854 µM); in assay [1] (96 h) it was 0.25 µg/mL (≈ 0.427 µM); in assay [1] (120 h) it was 0.25 µg/mL (≈ 0.427 µM); in assay [2], 0.13 µg/mL (≈ 0.222 µM). Further, the MBC in assay [3] (24 h) was 2 µg/mL (≈ 3.42 µM); in assay [3] (48 h), 0.5 µg/mL (≈ 0.854 µM); in assay [3] (72 h), 0.5 µg/mL (≈ 0.854 µM); in assay [3] (96 h), 0.25 µg/mL (≈ 0.427 µM); in assay [3] (120 h), 0.25 µg/mL (≈ 0.427 µM). Moreover, the “lux activity in spleens vs untreated control mice” value in the assay on rBCG:pMH30-lux [4] was “substantially reduced lux activity”.

With `O=C(O)c1cn(C2CC2)c2cc(N3CCNCC3)c(F)cc2c1=O` [Ciprofloxacin, ciprofloxacin], in assay [1], the “similarity” value was “comparable”. For the same compound, the MIC in assay [1] (24 h) is above 2 µg/mL; in assay [1] (48 h), above 2 µg/mL; in assay [1] (72 h) it was 0.5 µg/mL (≈ 1.51 µM); in assay [1] (96 h), 0.5 µg/mL (≈ 1.51 µM); in assay [1] (120 h), 0.5 µg/mL (≈ 1.51 µM); in assay [2], 0.25 µg/mL (≈ 0.754 µM). The MBC in assay [3] (24 h) is above 2 µg/mL; in assay [3] (48 h), above 2 µg/mL; in assay [3] (96 h), 0.5 µg/mL (≈ 1.51 µM); in assay [3] (120 h), 0.5 µg/mL (≈ 1.51 µM).

As for `CC[C@H]1OC(=O)[C@H](C)[C@@H](O[C@H]2C[C@@](C)(OC)[C@@H](O)[C@H](C)O2)[C@H](C)[C@@H](O[C@@H]2O[C@H](C)C[C@H](N(C)C)[C@H]2O)[C@](C)(OC)C[C@@H](C)C(=O)[C@H](C)[C@@H](O)[C@]1(C)O` [Clarithromycin, clarithromycin], in assay [1], the “similarity” value is listed as “comparable”. The MIC in assay [1] (24 h) was above 0.5 µg/mL; in assay [1] (48 h), above 0.5 µg/mL; in assay [1] (72 h) it was 0.5 µg/mL (≈ 0.668 µM); in assay [1] (96 h), 0.25 µg/mL (≈ 0.334 µM); in assay [1] (120 h), 0.25 µg/mL (≈ 0.334 µM); in assay [2], 0.25 µg/mL (≈ 0.334 µM). In addition, the “MBC value in words” value in assay [3] is recorded as “above the highest concentration tested”. Moreover, the MBC in assay [3] (24 h), in assay [3] (48 h), in assay [3] (72 h), in assay [3] (96 h) and in assay [3] (120 h) was above 0.5 µg/mL each time.

As for `CC[C@@H](CO)NCCN[C@@H](CC)CO` [Ethambutol, ethambutol], the “reduced luminescence in spleen vs untreated control” value with rBCG:pMH30-lux [5] was found to be 30%. Also, in the assay on rBCG:pMH30-lux [5], the “total reduction in luminescence in spleen” value stood at 75%. Further, the “similarity” value in assay [1] was “comparable”. Further, the MIC in assay [1] (24 h) was above 8 µg/mL; in assay [1] (48 h), above 8 µg/mL; in assay [1] (72 h), above 8 µg/mL; in assay [1] (96 h), 4 µg/mL (≈ 19.6 µM); in assay [1] (120 h), 4 µg/mL (≈ 19.6 µM); in assay [2], 2 µg/mL (≈ 9.79 µM). The MBC in assay [3] (24 h) was above 8 µg/mL; in assay [3] (48 h) it was 8 µg/mL (≈ 39.2 µM); in assay [3] (72 h) it was 4 to 8 µg/mL (≈ 19.6 to 39.2 µM); in assay [3] (96 h) it was 4 µg/mL (≈ 19.6 µM); in assay [3] (120 h), 4 µg/mL (≈ 19.6 µM). In the assay on rBCG:pMH30-lux [4], the “lux activity in spleens” value is reported as “reduced lux activity”.

As for `NNC(=O)c1ccncc1` [Isoniazid, isoniazid], the “reduced luminescence in spleen vs untreated control” value in the assay on rBCG:pMH30-lux [5] amounted to 50%. The “total reduction in luminescence in spleen” value in the assay on rBCG:pMH30-lux [5] was 90%. Further, the MIC is above 0.5 µg/mL in assay [1] (24 h); above 0.5 µg/mL in assay [1] (48 h); above 0.5 µg/mL in assay [1] (72 h); 0.06 µg/mL (≈ 0.438 µM) in assay [1] (96 h); 0.06 µg/mL (≈ 0.438 µM) in assay [1] (120 h); 0.06 µg/mL (≈ 0.438 µM) in assay [2]. Also, the MBC was above 0.5 µg/mL in assay [3] (24 h); 0.13 µg/mL (≈ 0.948 µM) in assay [3] (48 h); 0.13 µg/mL (≈ 0.948 µM) in assay [3] (72 h); 0.13 µg/mL (≈ 0.948 µM) in assay [3] (96 h); 0.13 µg/mL (≈ 0.948 µM) in assay [3] (120 h). In addition, in the assay with rBCG:pMH30-lux [4], the “lux activity in spleens” value was “reduced lux activity”.

For the compound `CC1COc2c(N3CCN(C)CC3)c(F)cc3c(=O)c(C(=O)O)cn1c23` (centres unmarked) [OFX, ofloxacin], the “lux activity in spleens vs untreated control mice” value with rBCG:pMH30-lux [4] is on record as “substantially reduced lux activity”.

Regarding `CO[C@H]1/C=C/O[C@@]2(C)Oc3c(C)c(O)c4c(O)c(c(/C=N/N5CCN(C)CC5)c(O)c4c3C2=O)NC(=O)/C(C)=C\C=C\[C@H](C)[C@H](O)[C@@H](C)[C@@H](O)[C@@H](C)[C@H](OC(C)=O)[C@@H]1C` [Rifampin, rifampin], the “similarity” value in assay [1] is on record as “comparable”. In addition, the MIC was above 0.25 µg/mL in assay [1] (24 h); above 0.25 µg/mL in assay [1] (48 h); above 0.25 µg/mL in assay [1] (72 h); 0.06 µg/mL (≈ 0.0729 µM) in assay [1] (96 h); 0.06 µg/mL (≈ 0.0729 µM) in assay [1] (120 h); 0.03 µg/mL (≈ 0.0365 µM) in assay [2]. Moreover, the MBC in assay [3] (24 h) was above 0.25 µg/mL; in assay [3] (48 h), above 0.25 µg/mL; in assay [3] (72 h), above 0.25 µg/mL; in assay [3] (96 h), 0.13 µg/mL (≈ 0.158 µM); in assay [3] (120 h), 0.13 µg/mL (≈ 0.158 µM). For the same compound, the “rBCG-lux luminescence in spleens” value in the assay on rBCG:pMH30-lux [4] was “reduced rBCG-lux luminescence”.

`[H]/N=C(/N)N[C@H]1[C@H](O)[C@@H](O)[C@H](O[C@@H]2O[C@@H](C)[C@](O)(C=O)[C@H]2O[C@@H]2O[C@@H](CO)[C@H](O)[C@@H](O)[C@@H]2NC)[C@@H](N/C(N)=N\[H])[C@@H]1O` [Streptomycin, streptomycin]: the “similarity” value in assay [1] was “comparable”. The MIC in assay [1] (24 h) is above 2 µg/mL; in assay [1] (48 h), 1 µg/mL (≈ 1.72 µM); in assay [1] (72 h), 0.5 µg/mL (≈ 0.86 µM); in assay [1] (96 h), 0.25 µg/mL (≈ 0.43 µM); in assay [1] (120 h) it was 0.25 µg/mL (≈ 0.43 µM); in assay [2], 0.25 µg/mL (≈ 0.43 µM). The MBC is above 2 µg/mL in assay [3] (24 h); 0.5 µg/mL (≈ 0.86 µM) in assay [3] (48 h); 0.5 µg/mL (≈ 0.86 µM) in assay [3] (72 h); 0.25 µg/mL (≈ 0.43 µM) in assay [3] (96 h); 0.25 µg/mL (≈ 0.43 µM) in assay [3] (120 h).

The record behind these values is US5679515A, “Mycobacterial reporter strains and uses thereof” (PathoGenesis Corporation, priority 1994, dated 1997).
